The values below come from paper PMC5791972 (PLoS ONE, 2018).

Where two headings read alike, the source gives them in different places.

This experiment addresses T1, VPAC1 (VIP1) (h) (Homo sapiens, UniProt P32241).
T1 construct: host or cells: CHO cells
T1 sequence (P32241 31-457): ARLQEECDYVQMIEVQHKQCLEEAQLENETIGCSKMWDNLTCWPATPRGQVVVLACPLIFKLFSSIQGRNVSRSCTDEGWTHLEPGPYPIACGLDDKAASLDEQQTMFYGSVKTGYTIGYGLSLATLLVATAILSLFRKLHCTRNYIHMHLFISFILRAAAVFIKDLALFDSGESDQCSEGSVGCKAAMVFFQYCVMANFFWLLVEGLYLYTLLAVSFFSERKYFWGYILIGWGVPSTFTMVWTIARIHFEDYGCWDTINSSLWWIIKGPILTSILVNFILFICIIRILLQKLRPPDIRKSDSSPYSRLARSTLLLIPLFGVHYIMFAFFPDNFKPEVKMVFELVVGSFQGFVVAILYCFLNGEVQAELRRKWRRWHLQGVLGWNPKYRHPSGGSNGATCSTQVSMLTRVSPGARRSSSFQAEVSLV
The format is binding. The settings on record: 1.0E-06 M.

As usually defined, the inhibition is the drop in the measured response relative to a control, in per cent. Regarding `Cn1c(=O)n(CCCO)c(=O)c2c1nc(Oc1cccc(OC(F)(F)F)c1)n2Cc1ccc(Cl)cc1` [HC-608], the inhibition at 1 µM by setting is: (read-out: % Inhibition 1st) -9%; (read-out: % Inhibition 2nd) -8.4%; (read-out: % Inhibition Mean) -8.7%.
